The test system of assay [1] is HCMV. The experiment in a line: IE1 immunofluorescence of HCMV infected HEL cells. To be noted: HEL; antibody 1 h or AG1295 15 min before HCMV; 1 h at 37 C plus additional 6 h. It counts as cell-based, Human cytomegalovirus. How it is done: HEL cells were transfected with PDGFRα siRNA (smart pool, Dharmacon) or non-targeting control siRNA (Dharmacon) for 48-60 hours when maximum protein knockdown is achieved (panels a and b. Also see FIG. 3d). Cells were then infected with Towne, AD169, TR, or CMV-GFP strains of HCMV for 1 hour, washed and returned to 37° C. in complete growth media. Supernatants obtained from these cultures were used in subsequent assays measuring production of infectious virus as described below. […] Cultures infected with supernatants from GFP-CMV treated cells were monitored daily under the fluorescence microscope. Over 40% of the control siRNA treated cells expressed CMV-GFP 1 day post infection (c, 1 dpi) and this number increased to 100% by day 6 (c, 6 dpi). Note the appearance of “plaques”-like groups of cells in control siRNA transfected cells (c, 3 and 6 dpi). […]
Measurements of Infectious Virus Production. […] A duplicate set of cultures was analyzed by immunofluorescence at 12 hours post infection (hpi) to assess percent of IE1 positive cells, as a measure of “primary infection”. […] 12 hpi cells were stained for IE1 and IE1 positive cells were counted amongst a total of 100 cells/low magnification microscopic field, 4 fields/condition. […] Where indicated, CMV-GFP infected cells were monitored daily under fluorescence microscope. […]

The next assay deals with PI3-K/Akt signaling. It counts as cell-based, human.
The test system of assay [2] is HCMV. The experiment in a line: HCMV pp65 western blot in HEL cells. It counts as cell-based, Human cytomegalovirus. To be noted: antibody 10 ng/ml 30 min or AG 1295 20 pM, Towne HCMV 10 min at 37 C. The method, then:
HEL cells were transfected with siRNA against the PI3K p110α catalytic subunit (a mixture of 4 RNAi oligos, “smart pool” from Dharmacon) or non-targeting, control siRNA (Dharmacon) for 48 h prior to infection with HCMV (MOI of 1) for 1 hour. Cells were washed and cultured for 2 h-6 days. a. […] The mean number of IE1 positive cells is reduced by ˜50% in the PI3 Kp110α knockdown cultures—panel c**, p<0.01. PI3K p110α knock down is also significant (b, left panels, red fluorescence). However, unlike cells that lack a functional PDGFRα, PI3K p110α knock down cells are capable of producing infectious virus as shown by IE1 staining of the secondary infected cultures (panel d). A 10% decrease in infectious virus production in the cells treated with p110α siRNA is insignificant*, bars represent SD, […], panel c. Experiments were repeated twice, all conditions were assayed in triplicate. Similar results were obtained with both Towne-infected cultures (illustrated in this figure) and CMV-GFP.
Upper panel: HEL cells pretreated with anti-human PDGFRα antibody (10 ng/ml, for 30 min, clone AF-307-NA from R&D; lanes 1 and 4) or with AG 1295 (lane 3, […], from Calbiochem) were stimulated with Towne HCMV (lanes 2-4) or Mock infected (lane 1) for 10 min at 37 C. […]
Western Blot, Immunoprecipitation, and Immunofluorescence analyses. […] Cell lysates were analyzed by SDS-PAGE. […]

Assay [3] has as its system HCMV. The experiment in a line: Viral attachment and internalization assay (pp65 immunofluorescence). It counts as cell-based, Human cytomegalovirus. The method, then: (A) HEL cells were pretreated with PBS (20 min 4° C.), IMC-3G3 (2 h, 37° C., 10 μg/ml), or PDGF-AA (20 min, 4° C., 10 ng/ml) prior to infection with HCMV (MOI of 1, 4° C., 1 h). Cells were returned to 37° C. for 30 minutes, and processed for pp65^HCMV and PDGFRα double immunofluorescence. […] All conditions were assayed in triplicate cultures. One hundred cells in 4 low magnification fields were counted. Bars represent SD.
Viral Attachment and Internalization Assays. Mouse fibroblasts and HEL cells (72 hours following siRNA transfections) were incubated with HCMV (MOI of 0.5) or mock treated for 1 hour at 4° C., after which cells were returned to 37° C. for 15, 30, or 60 min. Cells were fixed using methanol (20 min) and processed for pp65 immunofluorescence. Four low power fields were counted for each condition and pp65 positive were recorded for each 100 cells. Internalization assays were repeated twice.

Assay [4] deals with HCMV. The experiment in a line: HCMV IE1 / viral gene expression, western blot of infected cells. To be noted: for HCMV IE1 gene expression: IMC-3G3 10 μg/ml 12 h or Gleevec 100 nM 1 h pre-treatment, western blot. It counts as cell-based, Human cytomegalovirus. How it is done: (A) pp65 immunofluorescence after HCMV treatment (1 h, 4° C.) followed by shifting to 37° C. for indicated times. Rows represent (top to bottom): HEL, PDGFRα null fibroblasts, parental fibroblasts, null fibroblasts overexpressing hPDGFRα, HEL transfected with control, or PDGFRα siRNA. Nuclei were stained with DAPI. (B) Average±S.D. pp65 positive/100 cells counted in triplicate from (A). (C) Mock or HCMV infected cells were analyzed by western blotting with the indicated antibodies. Lanes 1-4 indicate HEL, 325S, PDGFRα null and PDGFRα null over-expressing hPDGFRα, respectively. (D) HEL transfected with control or PDGFRα siRNA were mock (lanes 1) or HCMV-treated (lanes 2) and subjected to western blots with indicated antibodies. (E) Western blot of HEL and U87 lysates after infection with mock (lanes 1), HCMV (lanes 2), or HCMV pretreated with IMC-3G3 (10 μg/ml, 12 h, lanes 3) or Gleevec (100 nM, 1 h, lanes 4). (F) PDGFRα siRNA treated cells infected with indicated HCMV strains and immunostained for IE1 12 hpi (primary infection). 6 dpi, supernatants were used to infect naïve HEL cells, followed by IE1 immunostaining and quantification (secondary infection). Average (n=6) values±S.D. are shown.
HUVEC cells were pre-treated with IMC-3G3 (10 μg/ml, Imclone, 12 h), or Gleevec (100 nM, 1 h) prior to HCMV or mock infection. 12 hours post-infection, cell lysates were analyzed by western blot for the presence of IE1 gene product. […] The same blot was stripped and re-probed for actin (lower panel). Lane designation is 1—Mock, 2—HCMV, 3—IMC-3G3+HCMV, 4—Gleevec+HCMV.
Upper panel: HEL cells pretreated with anti-human PDGFRα antibody (10 ng/ml, for 30 min, clone AF-307-NA from R&D; lanes 1 and 3) or with AG 1295 (lane 4, […], from Calbiochem) were stimulated with Towne HCMV (lanes 2 through 4) or Mock infected (lane 1) for 10 min at 37 C. Cells were washed and further incubated for 2 h at 37 C (to allow expression of IE1 gene product). Afterwards, cells were harvested in RIPA buffer and processed for western blotting as described.
Western Blot, Immunoprecipitation, and Immunofluorescence analyses. For stimulation experiments, cells were serum-starved for 24 h, followed by stimulation with HCMV (MOI of 0.5), PDGF-AA (5-10 ng/ml, from R&D Systems), or mock, for 10 minutes. In some cases, cells were pre-treated with IMC-3G3 (ImClone Inc.) at 10 µg/ml (2 or 12 h) or Gleevec® (100 nM, 1 h) prior to HCMV exposure. Cell lysates were analyzed by SDS-PAGE. Antibodies used were as follows: polyclonal anti-PDGFRα ( 1/500), phosphor-Tyrosine clone 4G10 ( 1/1000), and monoclonal anti-p85 PI3-K ( 1/1000), (Upstate Biotechnology), anti HCMV IE1 MAB810 (Chemicon; 1/1000), anti HCMV pp65 (Novocastra, 1/1000), anti-phosphor-PDGFRα ( 1/500, pTyr 754), anti-phosphor-Akt (Ser 473, 1/1000) and total Akt ( 1/1000; all from Cell Signaling). Anti-actin polyclonal control antibody was used ( 1/500, Sigma). Immunoprecipitations were performed using protein G (Pierce) according to manufacturer's instructions. For immunofluorescence, monoclonal HCMV pp65 and phosphor-PDGFRα (p-Tyr 754, Santa Cruz Biotechnology) were used, overnight at 4° C., followed by 1 hour incubation with secondary antibodies conjugated to Alexa-488, or Alexa 568 ( 1/5,000, Molecular Probes). Nuclei were counterstained with DAPI. Co-immunoprecipitation experiments were performed using full length soluble purified recombinant gB (gB 680, from Don Diamond, City of Hope, Calif.) and detergent soluble extract of HEL cells generated in lysis buffer (1% NP-40, 75 mM NaCl and 50 mM Tris-HCl). 500 μg of protein from total cell extract was incubated with 25 μg of gB 680 in lysis buffer in the presence of an anti-gB (Virusys, Inc) or anti-PDGFRα (R&D) antibody overnight at 4° C. Immune complexes were recovered with protein A-Sepharose beads (2 hr incubation), denatured and separated on SDS-PAGE for western blot with anti-gB (Virusys, Inc) or anti-PDGFRα (Cell Signaling Technology) antibodies.

Setting [5] is: human epithelial, endothelial, and fibroblast cells.

“Also recorded” adds a separate entry of the source.

Experimental for PI3-K/Akt signaling: (A) HEL cells stimulated with HCMV or PDGF-AA were subjected to immunoprecipitation and western blot analyses with indicated antibodies. (B) Phospho-PDGFRα ELISA of cells+/−pretreatment with IMC-3G3 (10 μg/ml, 2 h) followed by HCMV (MOI=1) or PDGF (10 ng/ml) for 10 min. Mean values (n=6)±S.D are shown. (C) Western blot of HEL mock, HCMV, or PDGF-AA stimulated (10 min), +/−IMC-3G3 (2 μg/ml) or Gleevec® (Imatinib) (100 nM). The same membrane was used for p-Akt^Ser 473 and Akt.
HEL cells pretreated with blocking reagents (as indicated; 30 min, 37 C) were stimulated for 10 min with HCMV, PDGF-AA (5 ng/ml), or mock-treated. Cell lysates were collected in RIPA buffer (supplemented with protease and phosphatase inhibitors) and subjected to Western blot analysis.
For stimulation experiments, cells were serum-starved for 24 h, followed by stimulation with HCMV (MOI of 0.5), PDGF-AA (5-10 ng/ml, from R&D Systems), or mock, for 10 minutes. In some cases, cells were pre-treated with IMC-3G3 (ImClone Inc.) at 10 g/ml (2 or 12 h) or Gleevec® (100 nM, 1 h) prior to HCMV exposure. Cell lysates were analyzed by SDS-PAGE. Antibodies used were as follows: polyclonal anti-PDGFRα ( 1/500), phosphor-Tyrosine clone 4G10 ( 1/1000), and monoclonal anti-p85 PI3-K ( 1/1000), (Upstate Biotechnology), anti HCMV IE1 MAB810 (Chemicon; 1/1000), anti HCMV pp65 (Novocastra, 1/1000), anti-phosphor-PDGFRα ( 1/500, pTyr 754), anti-phosphor-Akt (Ser 473, 1/1000) and total Akt ( 1/1000; all from Cell Signaling). Anti-actin polyclonal control antibody was used ( 1/500, Sigma). Immunoprecipitations were performed using protein G (Pierce) according to manufacturer's instructions.

Consider `Cc1cc2ncc(-c3ccccc3)nc2cc1C` [AG1295, reference compound], for which, in the assay on HCMV [1], the IE1 levels entry is reported as “significant decrease”. The “p-Akt levels induced by either PDGF or HCMV” value in the assay on PI3-K/Akt signaling (HEL pretreated with blocking reagents 30 min, 37 C, stimulated 10 min with HCMV or PDGF-AA 5 ng/ml) is reported as “decreased”. For the same compound, in the assay on HCMV [2], the “amount of pp65 (anti-pp65 blot)” value is given as “decrease”.
In the case of “PDGF-AA: the authentic (genuine) PDGFRα ligand, from R&D Systems [reference compound]”, the HCMV entry result with HCMV [3] (HEL cells harboring endogenous PDGFRα, pretreatment with PDGF-AA) is on record as “significantly decreased; also recorded: competitively inhibited”. Further, the “inhibition of HCMV entry (pp65 positive cells)” value with HCMV [3] (HEL cells, IMC-3G3 2 h, 37° C., 10 μg/ml, PDGF-AA 20 min, 4° C., 10 ng/ml, HCMV MOI of 1, 30 min at 37° C.) is approximately 30%.
In the case of `Cc1ccc(NC(=O)c2ccc(CN3CCN(C)CC3)cc2)cc1Nc1nccc(-c2cccnc2)n1` [Gleevec, 4-[(4-methylpiperazin-1-yl)methyl]-N-[4-methyl-3-[(4-pyridin-3-ylpyrimidin-2-yl)amino]-phenyl]-benzamide, reference compound], the “Akt phosphorylation induced by either HCMV or PDGF-AA” value with PI3-K/Akt signaling (HEL, 10 min stimulation, IMC-3G3 2 μg/ml or Gleevec 100 nM, p-Akt Ser 473) is given as “abolished”. The “HCMV IE1 gene expression” value in the assay with HCMV [4] (HEL cells) and with HCMV [4] (U87 glioma cells) was “completely inhibited” each time. Also, the “HCMV IE1 expression” value in the assay with HCMV [4] (HUVEC, pre-treated with IMC-3G3 10 μg/ml 12 h or Gleevec 100 nM 1 h, western blot 12 hours post-infection) is “completely inhibited”. Further, the HCMV gene expression result in the assay with HCMV [4] (setting [5]) was “completely inhibited”. Besides, the HCMV viral internalization entry in the assay with HCMV [3] (setting [5]) was “completely inhibited”.

The record behind these values is patent publication US9340788B2 (priority 2007, dated 2016).
